The subject of this test is TMD-8 cells. Put plainly: Cell proliferation assay (CellTiter-Glo), TMD-8. Conditions: Homo sapiens, TMD8, 120 h; 5-day treatment; read-out: TMD8 cells growth IC50. In kind it is cell-based. On the procedure: Cell proliferation assay: TMD-8 and SU-DHL-1 cells were maintained at 37° C. in a humidified atmosphere with 5% CO2 in the recommended medium and serum concentrations. For cell proliferation assay, cells were seeded in 96-well pates at a density of 5,000 to 10,000 cells per well and cultured overnight at 37° C. in recommended medium supplemented with 5-10% FBS. On the next day, the test articles at various concentrations or vehicle control (0.5% DMSO) were added into cell culture. After 5-day treatment, the growth of cells was assayed by the CellTiter-Glo® Luminestceaent Cell Viability Assay (Promega). IC50 values were calculated using GraphPad Prism by plotting the logarithm of the concentration versus percent inhibition of cell growth as compared with the vehicle control.
What is called IC50 is the point on the concentration scale where inhibition reaches its midpoint. Take `C=CC(=O)N1CCCC(n2cc(-c3ccc(Oc4ccc(F)cc4)cc3)c3c(N)n[nH]c(=O)c32)C1` (stereo not shown) [Example 60, 1-(1-acryloylpiperidin-3-yl)-4-amino-3-(4-(4-fluorophenoxy)phenyl)-1H-pyrrolo[2,3-d]pyridazin-7(6H)-one]: the IC50 was in the range of 0.01 to 1 µM.

On to `CN(C)C/C=C/C(=O)N1CCCC(n2cc(-c3ccc(Oc4ccc(F)cc4)cc3)c3c(N)n[nH]c(=O)c32)C1` (stereo not shown) [Example 61, 4-amino-1-[1-[(E)-4-(dimethylamino)but-2-enoyl]-3-piperidyl]-3-[4-(4-fluorophenoxy)phenyl]-6H-pyrrolo[2,3-d]pyridazin-7-one], for which the IC50 lay in the range of 0.01 to 1 µM.

Take `C=CC(=O)N1CCCC(n2cc(-c3ccc(Oc4cccc(F)c4)cc3)c3c(N)n[nH]c(=O)c32)C1` (stereo not shown) [Example 62, 1-(1-acryloylpiperidin-3-yl)-4-amino-3-(4-(3-fluorophenoxy)phenyl)-1H-pyrrolo[2,3-d]pyridazin-7(6H)-one]: the IC50 was at most 0.01 µM.

Consider `CN(C)C/C=C/C(=O)N1CCCC(n2cc(-c3ccc(Oc4cccc(F)c4)cc3)c3c(N)n[nH]c(=O)c32)C1` (stereo not shown) [Example 63, 4-amino-1-[1-[(E)-4-(dimethylamino)but-2-enoyl]-3-piperidyl]-3-[4-(3-fluorophenoxy)phenyl]-6H-pyrrolo[2,3-d]pyridazin-7-one], for which the IC50 was at most 0.01 µM.

With `C=CC(=O)N1CCCC(n2cc(-c3ccc(Oc4ccc(Cl)cc4)cc3)c3c(N)n[nH]c(=O)c32)C1` (stereo not shown) [Example 64, 1-(1-acryloylpiperidin-3-yl)-4-amino-3-(4-(4-chlorophenoxy)phenyl)-1H-pyrrolo[2,3-d]pyridazin-7(6H)-one], the IC50 is at most 0.01 µM.

For the compound `CN(C)C/C=C/C(=O)N1CCCC(n2cc(-c3ccc(Oc4ccc(Cl)cc4)cc3)c3c(N)n[nH]c(=O)c32)C1` (stereo not shown) [Example 65, 4-amino-3-[4-(4-chlorophenoxy)phenyl]-1-[1-[(E)-4-(dimethylamino)but-2-enoyl]-3-piperidyl]-6H-pyrrolo[2,3-d]pyridazin-7-one], the IC50 is 0.01 to 1 µM.

`C=CC(=O)N1CCCC(n2cc(-c3ccc(Oc4cccc(Cl)c4)cc3)c3c(N)n[nH]c(=O)c32)C1` (stereo not shown) [Example 66, 1-(1-acryloylpiperidin-3-yl)-4-amino-3-(4-(3-chlorophenoxy)phenyl)-1H-pyrrolo[2,3-d]pyridazin-7(6H)-one]: the IC50 is at most 0.01 µM.

As for `CN(C)C/C=C/C(=O)N1CCCC(n2cc(-c3ccc(Oc4cccc(Cl)c4)cc3)c3c(N)n[nH]c(=O)c32)C1` (stereo not shown) [Example 67, 4-amino-3-[4-(3-chlorophenoxy)phenyl]-1-[1-[(E)-4-(dimethylamino)but-2-enoyl]-3-piperidyl]-6H-pyrrolo[2,3-d]pyridazin-7-one], the IC50 was 0.01 to 1 µM.

Turning to `C=CC(=O)N1CCCC(n2cc(-c3ccc(Oc4cccc(Cl)c4)c(OC)c3)c3c(N)n[nH]c(=O)c32)C1` (stereo not shown) [Example 68, 1-(1-acryloylpiperidin-3-yl)-4-amino-3-(4-(3-chlorophenoxy)-3-methoxyphenyl)-1H-pyrrolo[2,3-d]pyridazin-7(6H)-one], the IC50 was at most 0.01 µM.

`COc1cc(-c2cn(C3CCCN(C(=O)/C=C/CN(C)C)C3)c3c(=O)[nH]nc(N)c23)ccc1Oc1cccc(Cl)c1` (stereo not shown) [Example 69, 4-amino-3-[4-(3-chlorophenoxy)-3-methoxy-phenyl]-1-[1-[(E)-4-(dimethylamino)but-2-enoyl]-3-piperidyl]-6H-pyrrolo[2,3-d]pyridazin-7-one]: the IC50 was at most 0.01 µM.

Turning to `C=CC(=O)N1CCC[C@@H](n2cc(-c3ccc(Oc4ccccc4Cl)cc3)c3c(N)n[nH]c(=O)c32)C1` [Example 70, (R)-1-(1-acryloylpiperidin-3-yl)-4-amino-3-(4-(2-chlorophenoxy)phenyl)-1H-pyrrolo[2,3-d]pyridazin-7(6H)-one], the IC50 was at most 0.01 µM.

Turning to `CN(C)C/C=C/C(=O)N1CCC[C@@H](n2cc(-c3ccc(Oc4ccccc4Cl)cc3)c3c(N)n[nH]c(=O)c32)C1` [Example 71, 4-amino-3-[4-(2-chlorophenoxy)phenyl]-1-[(3R)-1-[(E)-4-(dimethylamino)but-2-enoyl]-3-piperidyl]-6H-pyrrolo[2,3-d]pyridazin-7-one], the IC50 is at most 0.01 µM.

Take `C=CC(=O)N1CCC[C@@H](n2cc(-c3ccc(Oc4ccc(Cl)c(Cl)c4)c(OC)c3)c3c(N)n[nH]c(=O)c32)C1` [Example 72, (R)-1-(1-acryloylpiperidin-3-yl)-4-amino-3-(4-(3,4-dichlorophenoxy)-3-methoxyphenyl)-1H-pyrrolo[2,3-d]pyridazin-7(6H)-one]: the IC50 lay within 0.01 to 1 µM.

With `COc1cc(-c2cn([C@@H]3CCCN(C(=O)/C=C/CN(C)C)C3)c3c(=O)[nH]nc(N)c23)ccc1Oc1ccc(Cl)c(Cl)c1` [Example 73, 4-amino-3-[4-(3,4-dichlorophenoxy)-3-methoxy-phenyl]-1-[(3R)-1-[(E)-4-(dimethylamino)but-2-enoyl]-3-piperidyl]-6H-pyrrolo[2,3-d]pyridazin-7-one], the IC50 was in the range of 0.01 to 1 µM.

On to `C=CC(=O)N1CCC[C@@H](n2cc(-c3ccc(Oc4ccccc4)c(F)c3)c3c(N)n[nH]c(=O)c32)C1` [Example 74, (R)-1-(1-acryloylpiperidin-3-yl)-4-amino-3-(3-fluoro-4-phenoxyphenyl)-1H-pyrrolo[2,3-d]pyridazin-7(6H)-one], for which the IC50 was at most 0.01 µM.

Turning to `CN(C)C/C=C/C(=O)N1CCC[C@@H](n2cc(-c3ccc(Oc4ccccc4)c(F)c3)c3c(N)n[nH]c(=O)c32)C1` [Example 75, 4-amino-1-[(3R)-1-[(E)-4-(dimethylamino)but-2-enoyl]-3-piperidyl]-3-(3-fluoro-4-phenoxy-phenyl)-6H-pyrrolo[2,3-d]pyridazin-7-one], the IC50 lay in the range of 0.01 to 1 µM.

Consider `C=CC(=O)N1CCC[C@@H](n2cc(-c3ccc(Oc4ccccc4)cc3F)c3c(N)n[nH]c(=O)c32)C1` [Example 76, (R)-1-(1-acryloylpiperidin-3-yl)-4-amino-3-(2-fluoro-4-phenoxyphenyl)-1H-pyrrolo[2,3-d]pyridazin-7(6H)-one], for which the IC50 was at most 0.01 µM.

Take `CN(C)C/C=C/C(=O)N1CCC[C@@H](n2cc(-c3ccc(Oc4ccccc4)cc3F)c3c(N)n[nH]c(=O)c32)C1` [Example 77, 4-amino-1-[(3R)-1-[(E)-4-(dimethylamino)but-2-enoyl]-3-piperidyl]-3-(2-fluoro-4-phenoxy-phenyl)-6H-pyrrolo[2,3-d]pyridazin-7-one]: the IC50 is at most 0.01 µM.

Turning to `C=CC(=O)N1CCC[C@@H](n2cc(-c3ccc(Oc4c(F)cccc4Cl)cc3)c3c(N)n[nH]c(=O)c32)C1` [Example 78, (R)-1-(1-acryloylpiperidin-3-yl)-4-amino-3-(4-(2-chloro-6-fluorophenoxy)phenyl)-1H-pyrrolo[2,3-d]pyridazin-7(6H)-one], the IC50 was at most 0.01 µM.

Consider `CN(C)C/C=C/C(=O)N1CCC[C@@H](n2cc(-c3ccc(Oc4c(F)cccc4Cl)cc3)c3c(N)n[nH]c(=O)c32)C1` [Example 79, 4-amino-3-[4-(2-chloro-6-fluoro-phenoxy)phenyl]-1-[(3R)-1-[(E)-4-(dimethylamino)but-2-enoyl]-3-piperidyl]-6H-pyrrolo[2,3-d]pyridazin-7-one], for which the IC50 is at most 0.01 µM.

With `C=CC(=O)N1CCC[C@@H](n2c(Cl)c(-c3ccc(Oc4ccccc4)cc3)c3c(N)n[nH]c(=O)c32)C1` [Example 80, (R)-1-(1-acryloylpiperidin-3-yl)-4-amino-2-chloro-3-(4-phenoxyphenyl)-1H-pyrrolo[2,3-d]pyridazin-7(6H)-one], the half-maximal inhibitory concentration (IC50) lay within 0.01 to 1 µM.

`C=CC(=O)N1CCC[C@@H](n2c(F)c(-c3ccc(Oc4ccccc4)cc3)c3c(N)n[nH]c(=O)c32)C1` [Example 81, (R)-1-(1-acryloylpiperidin-3-yl)-4-amino-2-fluoro-3-(4-phenoxyphenyl)-1H-pyrrolo[2,3-d]pyridazin-7(6H)-one]: the IC50 is at most 0.01 µM.

Turning to `CN(C)C/C=C/C(=O)N1CCC[C@@H](n2c(F)c(-c3ccc(Oc4ccccc4)cc3)c3c(N)n[nH]c(=O)c32)C1` [Example 82, 4-amino-1-[(3R)-1-[(E)-4-(dimethylamino)but-2-enoyl]-3-piperidyl]-2-fluoro-3-(4-phenoxyphenyl)-6H-pyrrolo[2,3-d]pyridazin-7-one], the IC50 was at most 0.01 µM.

As to `N#CN1CCC[C@@H](n2cc(-c3ccc(Oc4c(F)cccc4F)cc3)c3c(N)n[nH]c(=O)c32)C1` [Example 84, (R)-3-(4-amino-3-(4-(2,6-difluorophenoxy)phenyl)-7-oxo-6,7-dihydro-1H-pyrrolo[2,3-d]pyridazin-1-yl)piperidine-1-carbonitrile], the IC50 is at most 0.01 µM.

As for `N#CN1CCC[C@@H](n2cc(-c3ccc(Oc4ccccc4)c(F)c3)c3c(N)n[nH]c(=O)c32)C1` [Example 85, (R)-3-(4-amino-3-(3-fluoro-4-phenoxyphenyl)-7-oxo-6,7-dihydro-1H-pyrrolo[2,3-d]pyridazin-1-yl)piperidine-1-carbonitrile], the IC50 was at most 0.01 µM.

For `N#CN1CCC[C@@H](n2cc(-c3ccc(Oc4ccccc4F)cc3)c3c(N)n[nH]c(=O)c32)C1` [Example 87, (R)-3-(4-amino-3-(4-(2-fluorophenoxy)phenyl)-7-oxo-6,7-dihydro-1H-pyrrolo[2,3-d]pyridazin-1-yl)piperidine-1-carbonitrile], the IC50 is at most 0.01 µM.

As for `C=CC(=O)Nc1cccc(-n2cc(-c3ccc(Oc4ccccc4)cc3)c3c(N)n[nH]c(=O)c32)c1` [Example 88, N-(3-(4-amino-7-oxo-3-(4-phenoxyphenyl)-6,7-dihydro-1H-pyrrolo[2,3-d]pyridazin-1-yl)phenyl)acrylamide], the IC50 was at most 0.01 µM.

`C=CC(=O)Nc1cccc(-n2cc(-c3ccc(OC)c(Cl)c3)c3c(N)n[nH]c(=O)c32)c1` [Example 89, N-(3-(4-amino-3-(3-chloro-4-methoxyphenyl)-7-oxo-6,7-dihydro-1H-pyrrolo[2,3-d]pyridazin-1-yl)phenyl)acrylamide]: the IC50 is 0.01 to 1 µM.

These data come from patent US10323037B2, “Aminopyridazinone compounds as protein kinase inhibitors” (Jiangsu Hengrui Medicine Co., Ltd., priority 2014, dated 2019).
